Biological target: T1, Human recombinant MAO-B (Homo sapiens, UniProt P27338)
T1 construct: host or cells: insect cells
T1 sequence (P27338 1-520): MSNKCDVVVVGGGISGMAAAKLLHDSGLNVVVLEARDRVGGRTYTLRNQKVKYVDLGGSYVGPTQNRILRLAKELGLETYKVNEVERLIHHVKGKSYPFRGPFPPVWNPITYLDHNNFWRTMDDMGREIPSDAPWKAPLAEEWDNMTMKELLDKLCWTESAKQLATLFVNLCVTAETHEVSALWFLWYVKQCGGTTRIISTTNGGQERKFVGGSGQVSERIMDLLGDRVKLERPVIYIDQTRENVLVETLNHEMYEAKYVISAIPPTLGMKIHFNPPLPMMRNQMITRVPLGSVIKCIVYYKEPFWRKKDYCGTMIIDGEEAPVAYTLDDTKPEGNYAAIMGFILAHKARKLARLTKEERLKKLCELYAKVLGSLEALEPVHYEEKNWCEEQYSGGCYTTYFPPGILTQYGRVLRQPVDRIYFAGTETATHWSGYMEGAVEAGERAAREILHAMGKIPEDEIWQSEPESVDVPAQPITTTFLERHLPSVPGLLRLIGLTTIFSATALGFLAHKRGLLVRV
Assay: MAO-B enzymatic assay (fluorometric, kynuramine)
Assay type: biochemical
Conditions: human recombinant MAO-B expressed in insect cells; kynuramine substrate; values given as bins; read-out: MAO-B (pEC50) (converted)
Protocol: The MAO enzymatic assay was performed according to the fluorometric method described by Matsumoto and colleagues (Matsumoto et al., Clin. Biochem. 1985, 18, 126-129) with the following modifications. Human recombinant MAO-A and MAO-B expressed in insect cells were used. For both assays, test compound and/or vehicle were preincubated with purified enzyme in phosphate buffer pH 7.4 for 15 minutes at 37° C. The reaction was initiated by addition of […] kynuramine. Following a 60 minute incubation period, the reaction was terminated by the addition of 6 N NaOH. The amount of 4-hydroxyquinoline that formed was determined by spectrofluorimetrically at 325 nm/465 nm.
Results were converted to percent inhibition, and the EC50 (M) for each reaction was determined using the XLfit program from IDBS (ID Business Solutions Ltd., 2 Occam Court, Surrey Research Park, Guildford, Surrey, GU2 7QB UK). The EC50 represents the concentration of a compound where 50% of its maximal effect is observed. The pEC50 is defined as the negative logarithm of the EC50; a higher pEC50 value therefore corresponds to higher potency in the assay.
Representative compounds of the invention were evaluated in the MAO-B enzymatic assay. Typically, the compounds of the invention show MAO-B inhibitory properties at a concentration of 0.1 to 10 μM, typically at 5-100%.
As depicted in the following Table, these inhibitory properties were mirrored by pEC50 values ranging from 5 (meaning 10^−5 M or 10 μM) to greater than 7 (meaning less than 10^−7 M or 0.1 μM).

EC50: < 100 nM
SMILES: NC(=O)Cc1cc2ccc(OCc3cccc(Cl)c3)cc2[nH]c1=O [Example 83, 2-(7-((3-Chlorobenzyl)oxy)-2-oxo-1,2-dihydroquinolin-3-yl)acetamide]

Source: patent US9102674B2, “Substituted naphthyridine and quinoline compounds as MAO inhibitors” (DART NEUROSCIENCE (CAYMAN) LTD., priority 2013, dated 2015)
